Assay results reported in the supplement of paper PMC10307832.

How the values were obtained:
Test in all cases: relative viability (nuclei count vs DMSO), 5 days (fraction); higher = more cells survive
[1] = compound: COc1cc2ncn(-c3cc(OCc4ccccc4C(F)(F)F)c(C(N)=O)s3)c2cc1OC
Summary of the method: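 Lung cancer cell lines in 1536-well plates were exposed by pinning to five library-drug doses (not always all listed) √10 apart, following an overnight hold at 37 °C. MetaXpress counted Hoechst-stained nuclei from 4× images taken after 5 days without medium change. Viability is the median ratio of treated-well to vehicle-well nuclei across plates. Plates required control CV below 25% and at least one doubling.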

[2] = compound: COc1cc2ncn(-c3cc(OCc4ccccc4C(F)(F)F)c(C(N)=O)s3)c2cc1OC + N=C(N)NC(=N)NCCc1ccccc1 [Phenformin] (partner 250 µM)
Summary of the method: (§1)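 A single step with final 0.05% Triton X-100, 1% formaldehyde and 1 ug/ml Hoechst fixed the cells and stained nuclei 5 days after treatment. Lung cancer cell lines in 1536-well plates had been treated by pin tool the day after seeding with one drug alone or a fixed anchor-drug dose plus five library-drug doses (not always all listed) in √10 steps, and nuclei were counted on 4× images. Relative viability is the ratio of nuclei in treated wells to nuclei in vehicle wells, taken as the median of duplicate plates.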

[3] = compound: COc1cc2ncn(-c3cc(OCc4ccccc4C(F)(F)F)c(C(N)=O)s3)c2cc1OC + COc1cccc2cc(-c3nc([C@H]4CC[C@H](C(=O)O)CC4)n4ncnc(N)c34)[nH]c12 [OSI-027] (partner 0.5 µM)
Summary of the method: as §1

[4] = compound: COc1cc2ncn(-c3cc(OCc4ccccc4C(F)(F)F)c(C(N)=O)s3)c2cc1OC + CC(=O)Nc1cccc(-n2c(=O)n(C3CC3)c(=O)c3c(Nc4ccc(I)cc4F)n(C)c(=O)c(C)c32)c1 [Trametinib] (partner 0.02 µM)
Summary of the method: as §1

Cell Line | relative viability ([1]; 0.05 µM) | relative viability ([1]; 0.1581 µM) | relative viability ([1]; 0.5 µM) | relative viability ([1]; 1.581 µM) | relative viability ([1]; 5 µM) | relative viability ([2]; first compound 0.05 µM) | relative viability ([2]; first compound 0.1581 µM) | relative viability ([2]; first compound 0.5 µM) | relative viability ([2]; first compound 1.581 µM) | relative viability ([2]; first compound 5 µM) | relative viability ([3]; first compound 0.05 µM) | relative viability ([3]; first compound 0.1581 µM) | relative viability ([3]; first compound 0.5 µM) | relative viability ([3]; first compound 1.581 µM) | relative viability ([3]; first compound 5 µM) | relative viability ([4]; first compound 0.05 µM) | relative viability ([4]; first compound 0.1581 µM) | relative viability ([4]; first compound 0.5 µM) | relative viability ([4]; first compound 1.581 µM) | relative viability ([4]; first compound 5 µM)
HCC-366 | 1.02 | 0.927 | 0.429 | 0.0311 | 0.0273 | 0.612 | 0.534 | 0.301 | 0.0215 | 0.0222 | 1.1 | 0.814 | 0.182 | 0.0338 | 0.0229 | 0.114 | 0.35 | 0.12 | 0.0256 | 0.0157
HCC-827 | 1.04 | 0.986 | 0.901 | 0.541 | 0.341 | 0.468 | 0.426 | 0.33 | 0.22 | 0.181 | 0.794 | 0.9 | 0.564 | 0.228 | 0.14 | 0.479 | 0.421 | 0.473 | 0.428 | 0.453
HOP-62 | 1.03 | 1.01 | 0.861 | 0.336 | 0.161 | 0.67 | 0.664 | 0.53 | 0.15 | 0.108 | 0.846 | 0.888 | 0.537 | 0.226 | 0.144 | 0.35 | 0.284 | 0.348 | 0.163 | 0.136
IA-LM | 0.865 | 0.81 | 0.109 | 0.0808 | 0.0819 | – | – | – | – | – | – | – | – | – | – | – | – | – | – | –
LC-2-ad | 0.941 | 0.918 | 0.351 | 0.195 | 0.227 | 0.527 | 0.578 | 0.313 | 0.274 | 0.316 | 0.813 | 0.754 | 0.393 | 0.289 | 0.254 | 1.02 | 0.821 | 0.662 | 0.211 | 0.188
LCLC-97TM1 | 1.1 | 1.08 | 0.665 | 0.132 | 0.127 | 0.398 | 0.492 | 0.353 | 0.154 | 0.148 | 0.529 | 0.538 | 0.301 | 0.195 | 0.175 | 0.178 | 0.149 | 0.148 | 0.0713 | 0.0862
LCLC-103H | 1.02 | 1.12 | 0.915 | 0.442 | 0.224 | 0.386 | 0.397 | 0.279 | 0.178 | 0.127 | 0.495 | 0.538 | 0.405 | 0.249 | 0.12 | 0.675 | 0.643 | 0.565 | 0.452 | 0.268
LK-2 | 1.07 | 1.03 | 0.446 | 0.222 | 0.211 | 0.423 | 0.445 | 0.23 | 0.187 | 0.106 | 0.197 | 0.221 | 0.17 | 0.173 | 0.138 | 0.719 | 0.457 | 0.283 | 0.151 | 0.145
LOU-NH91 | 0.97 | 1.03 | 0.801 | 0.455 | 0.531 | 0.734 | 0.855 | 0.526 | 0.297 | 0.432 | 0.677 | 0.772 | 0.656 | 0.525 | 0.682 | 0.783 | 0.776 | 0.719 | 0.52 | 0.295
LU99A | 0.894 | 1.08 | 0.681 | 0.253 | 0.203 | 1.01 | 0.865 | 0.723 | 0.241 | 0.174 | 0.304 | 0.32 | 0.231 | 0.176 | 0.178 | 0.589 | 0.236 | 0.343 | 0.171 | 0.128
LXF-289 | 0.977 | 0.82 | 0.674 | 0.132 | 0.0998 | 0.437 | 0.466 | 0.256 | 0.0678 | 0.0402 | 0.815 | 0.755 | 0.214 | 0.0606 | 0.0476 | 0.685 | 0.551 | 0.491 | 0.142 | 0.0968
NCI-H23 | 0.999 | 0.635 | 0.348 | 0.151 | 0.115 | 0.798 | 0.821 | 0.433 | 0.129 | 0.125 | 0.638 | 0.561 | 0.316 | 0.117 | 0.0957 | 0.29 | 0.271 | 0.198 | 0.123 | 0.0957
NCI-H322M | 0.982 | 1.11 | 0.79 | 0.517 | 0.325 | 0.739 | 0.869 | 0.631 | 0.363 | 0.303 | 0.512 | 0.541 | 0.462 | 0.319 | 0.239 | 0.503 | 0.486 | 0.47 | 0.463 | 0.384
NCI-H358 | 0.908 | 1.03 | 0.475 | 0.166 | 0.164 | 0.3 | 0.321 | 0.162 | 0.0752 | 0.0692 | 0.744 | 0.726 | 0.549 | 0.0578 | 0.067 | 0.146 | 0.114 | 0.104 | 0.116 | 0.096
NCI-H1299 | 1.01 | 1.02 | 0.718 | 0.269 | 0.318 | – | – | – | – | – | – | – | – | – | – | – | – | – | – | –
NCI-H1563 | 1.02 | 0.984 | 0.888 | 0.865 | 0.654 | 0.709 | 0.628 | 0.65 | 0.528 | 0.452 | 0.853 | 0.687 | 0.798 | 0.57 | 0.488 | – | – | – | – | –
NCI-H1648 | 1.04 | 0.919 | 0.404 | 0.241 | 0.181 | – | – | – | – | – | 0.255 | 0.219 | 0.244 | 0.238 | 0.198 | 0.488 | 0.419 | 0.295 | 0.293 | 0.251
NCI-H1703 | 1.1 | 0.886 | 0.52 | 0.148 | 0.194 | – | – | – | – | – | – | – | – | – | – | – | – | – | – | –
